Assay results reported in ChEMBL document CHEMBL4619756, “Design, synthesis and biological evaluation of N-hydroxy-aminobenzyloxyarylamide analogues as novel selective κ opioid receptor antagonists” (Bioorg Med Chem Lett, 2020).

How the values were obtained:
[1] = biological target: T1, Mu-type opioid receptor (Homo sapiens, UniProt P35372); assay: Displacement of [3H]-DAMGO from human mu opiod receptor expressed in CHO cells at 10 uM incubated for 60 mins by liquid scintillation counting method relative to control; type: cell-based
T1 sequence (P35372 whole entry): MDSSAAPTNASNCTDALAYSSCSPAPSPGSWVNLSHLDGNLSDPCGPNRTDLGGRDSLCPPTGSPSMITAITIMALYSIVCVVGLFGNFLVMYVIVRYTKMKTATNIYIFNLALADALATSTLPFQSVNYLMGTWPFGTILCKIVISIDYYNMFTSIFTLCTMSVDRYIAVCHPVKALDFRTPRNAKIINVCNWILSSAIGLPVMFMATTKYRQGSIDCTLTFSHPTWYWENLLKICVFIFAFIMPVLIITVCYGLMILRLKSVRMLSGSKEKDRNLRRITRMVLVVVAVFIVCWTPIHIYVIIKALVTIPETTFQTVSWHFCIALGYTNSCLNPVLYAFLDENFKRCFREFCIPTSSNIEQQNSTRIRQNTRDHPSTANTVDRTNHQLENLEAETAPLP

[2] = biological target: T2, Delta-type opioid receptor (Homo sapiens, UniProt P41143); assay: Displacement of [3H]-DPDPE from human delta opiod receptor expressed in human HEK293 cells at 1 uM incubated for 60 mins by liquid scintillation counting method relative to control; type: cell-based
T2 sequence (P41143 whole entry): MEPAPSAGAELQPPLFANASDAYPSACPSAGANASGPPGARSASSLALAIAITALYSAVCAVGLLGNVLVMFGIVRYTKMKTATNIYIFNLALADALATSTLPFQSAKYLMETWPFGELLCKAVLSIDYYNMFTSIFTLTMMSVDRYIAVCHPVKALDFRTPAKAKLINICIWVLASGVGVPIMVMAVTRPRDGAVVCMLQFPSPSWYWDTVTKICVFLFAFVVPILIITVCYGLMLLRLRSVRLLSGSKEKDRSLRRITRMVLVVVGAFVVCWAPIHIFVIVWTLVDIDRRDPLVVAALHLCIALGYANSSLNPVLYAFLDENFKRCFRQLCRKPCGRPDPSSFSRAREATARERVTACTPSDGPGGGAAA

[3] = biological target: T3, Kappa-type opioid receptor (Homo sapiens, UniProt P41145); assay: Displacement of [3H]-U69593 from human kappa opiod receptor expressed in CHO cells at 1 uM incubated for 60 mins by liquid scintillation counting method relative to control; type: cell-based
T3 sequence (P41145 whole entry): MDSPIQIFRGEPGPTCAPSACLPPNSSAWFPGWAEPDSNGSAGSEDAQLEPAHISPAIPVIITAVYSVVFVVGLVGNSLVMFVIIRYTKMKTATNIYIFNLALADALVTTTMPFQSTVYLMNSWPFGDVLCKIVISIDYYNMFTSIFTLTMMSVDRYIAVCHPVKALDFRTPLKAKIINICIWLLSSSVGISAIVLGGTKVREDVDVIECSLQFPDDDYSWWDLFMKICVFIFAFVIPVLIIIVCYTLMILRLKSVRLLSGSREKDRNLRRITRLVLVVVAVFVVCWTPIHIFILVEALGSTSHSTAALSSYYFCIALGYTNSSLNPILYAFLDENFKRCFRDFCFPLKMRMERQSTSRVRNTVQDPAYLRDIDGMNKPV

[4] = biological target: T3, Kappa-type opioid receptor; assay: Displacement of [3H]-U69593 from human kappa opiod receptor expressed in CHO cells at 10 uM incubated for 60 mins by liquid scintillation counting method relative to control; type: cell-based
[5] = biological target: T2, Delta-type opioid receptor; assay: Displacement of [3H]-DPDPE from human delta opiod receptor expressed in human HEK293 cells at 10 uM incubated for 60 mins by liquid scintillation counting method relative to control; type: cell-based
[6] = biological target: T1, Mu-type opioid receptor; assay: Displacement of [3H]-DAMGO from human mu opiod receptor expressed in CHO cells at 1 uM incubated for 60 mins by liquid scintillation counting method relative to control; type: cell-based
[7] = biological target: T2, Delta-type opioid receptor; assay: Antagonist activity at human delta opiod receptor expressed in human HEK293 cells assessed as inhibition of DPDPE-induced [35S]GTPgammaS binding incubated for 2 hrs by microbeta liquid scintillation counting method; type: functional, cell-based
[8] = organism: Homo sapiens; assay: Selectivity index, ratio of Ki for human delta opiod receptor expressed […] for human kappa opiod receptor expressed in CHO cells; type: cell-based
[9] = organism: Homo sapiens; assay: Selectivity index, ratio of IC50 for human delta opiod receptor expressed in HEK293 cells to IC50 for human kappa opiod receptor expressed in CHO cells
[10] = biological target: T1, Mu-type opioid receptor; assay: Displacement of [3H]-DAMGO from human mu opiod receptor expressed in CHO cells incubated for 60 mins by liquid scintillation counting method; type: cell-based
[11] = biological target: T3, Kappa-type opioid receptor; assay: Antagonist activity at human kappa opiod receptor expressed in CHO cells assessed as inhibition of U69593-induced [35S]GTPgammaS binding incubated for 4 hrs by microbeta liquid scintillation counting method; type: functional, cell-based
[12] = biological target: T1, Mu-type opioid receptor; assay: Antagonist activity at human mu opiod receptor expressed in CHO cells assessed as inhibition of DAMGO-induced [35S]GTPgammaS binding incubated for 4 hrs by microbeta liquid scintillation counting method; type: functional, cell-based
[13] = organism: Homo sapiens; assay: Selectivity index, ratio of IC50 for human mu opiod receptor expressed in CHO cells to IC50 for human kappa opiod receptor expressed in CHO cells; type: cell-based
[14] = biological target: T2, Delta-type opioid receptor; assay: Displacement of [3H]-DPDPE from human delta opiod receptor expressed in human HEK293 cells incubated for 60 mins by liquid scintillation counting method; type: cell-based
[15] = organism: Homo sapiens; assay: Selectivity index, ratio of Ki for human mu opiod receptor expressed in CHO cells to Ki for human kappa opiod receptor expressed in CHO cells; type: cell-based
[16] = biological target: T3, Kappa-type opioid receptor; assay: Displacement of [3H]-U69593 from human kappa opiod receptor expressed in CHO cells incubated for 60 mins by liquid scintillation counting method; type: cell-based

SMILES | inhibition [1] [%] | inhibition [2] [%] | inhibition [3] [%] | inhibition [4] [%] | inhibition [5] [%] | inhibition [6] [%] | IC50 [7] [nM] | Ki [10] [nM] | IC50 [11] [nM] | IC50 [12] [nM] | Ki [14] [nM] | Ki [16] [nM] | Ratio Ki [8] | Ratio IC50 [9] | Ratio IC50 [13] | Ratio Ki [15]
Cc1cc(C)cc(C2CCCN2Cc2ccc(Oc3ccc4c(=O)[nH]oc4c3F)c(Cl)c2)c1 (stereo not given) | 45.7 | 18 | 20.1 | 47.4 | 32.9 | 21.4 | – | – | – | – | – | – | – | – | – | –
O=c1[nH]oc2c(F)c(Oc3ccc(CN4CCCC4c4cccc(F)c4)cc3)ccc12 (stereo not given) | 0 | 20.7 | 0 | 24.8 | 52.5 | 0 | – | – | – | – | – | – | – | – | – | –
COc1cccc(C2CCCN2Cc2ccc(Oc3ccc(C(=O)NO)cc3)cc2)c1 (stereo not given) | 31.6 | 0 | 33.8 | 84.3 | 7.1 | 13.5 | – | – | – | – | – | – | – | – | – | –
COc1ccc(C2CCCN2Cc2ccc(Oc3ccc4c(=O)[nH]oc4c3)cc2)cc1 (stereo not given) | 50.6 | 33.3 | 55.7 | 66.9 | 40.7 | 42.2 | – | – | – | – | – | – | – | – | – | –
Cc1cc(C)cc(C2CCCN2Cc2ccc(Oc3ccc4c(=O)[nH]oc4c3F)c(F)c2)c1 (stereo not given) | 37.3 | 17.2 | 26.7 | 56.9 | 49.3 | 9.4 | – | – | – | – | – | – | – | – | – | –
COc1ccc(C2CCCN2Cc2ccc(Oc3ccc(C(=O)NO)cc3F)cc2)cc1 (stereo not given) | 43.1 | 6.2 | 34.9 | 77.4 | 15.8 | 11 | – | – | – | – | – | – | – | – | – | –
COc1cccc(C2CCCN2Cc2ccc(Oc3ccc(C(=O)NO)cc3F)cc2)c1 (stereo not given) | 64.4 | – | 42.5 | 80.4 | – | 22.6 | – | – | – | – | – | – | – | – | – | –
O=c1[nH]oc2c(Cl)c(Oc3ccc(CN4CCCC4c4ccc(Cl)cc4)cc3)ccc12 (stereo not given) | 41.1 | 23.9 | 0 | 0 | 52.2 | 21.7 | – | – | – | – | – | – | – | – | – | –
COc1ccc(C2CCCN2Cc2ccc(Oc3ccc4c(=O)[nH]oc4c3F)cc2)cc1 (stereo not given) | 41 | 23.7 | 0 | 19.1 | 49.7 | 19.2 | – | – | – | – | – | – | – | – | – | –
O=c1[nH]oc2cc(Oc3ccc(CN4CCCC4c4ccc(Cl)cc4)cc3)ccc12 (stereo not given) | 54.5 | 15.7 | 57.6 | 83.5 | 35.9 | 47 | – | – | – | – | – | – | – | – | – | –
O=c1[nH]oc2c(Cl)c(Oc3ccc(CN4CCCC4c4cccc(Cl)c4)cc3)ccc12 (stereo not given) | 32.5 | 0 | 0 | 45.4 | 44.9 | 19.2 | – | – | – | – | – | – | – | – | – | –
Cc1cc(C)cc(C2CCCN2Cc2ccc(Oc3ccc4c(=O)[nH]oc4c3)c(Cl)c2)c1 (stereo not given) | 9.8 | 0 | 23.8 | 69.8 | 16.9 | 0 | – | – | – | – | – | – | – | – | – | –
O=c1[nH]oc2c(F)c(Oc3ccc(CN4CCCC4c4cccc(Cl)c4)cc3)ccc12 (stereo not given) | 0 | 0 | 20 | 57.2 | 38.2 | 0 | – | – | – | – | – | – | – | – | – | –
O=C(NO)c1ccc(Oc2ccc(CN3CCCC3c3ccc(Cl)cc3)cc2)c(F)c1 (stereo not given) | 25.8 | 25.6 | 46.1 | 74.3 | 34.4 | 0 | – | – | – | – | – | – | – | – | – | –
COc1ccc(C2CCCN2Cc2ccc(Oc3ccc4c(=O)[nH]oc4c3Cl)cc2)cc1 (stereo not given) | 32.2 | 18 | 18.8 | 39.9 | 39.3 | 17.7 | – | – | – | – | – | – | – | – | – | –
Cc1cc(C)cc(C2CCCN2Cc2ccc(Oc3ccc4c(=O)[nH]oc4c3)cc2)c1 (stereo not given) | 74 | 33.9 | 70.6 | 91.6 | 54.8 | 49.4 | – | 1480 | – | – | 5010 | 1410 | 3.5 | – | – | 1
Cc1cc(C)cc(C2CCCN2Cc2ccc(Oc3ccc4c(=O)[nH]oc4c3)c(F)c2)c1 (stereo not given) | 9.5 | 0 | 37.2 | 85.2 | 10.7 | 0 | – | – | – | – | – | – | – | – | – | –
O=C(NO)c1ccc(Oc2ccc(CN3CCCC3c3cccc(Cl)c3)cc2)c(F)c1 (stereo not given) | 57.3 | 0 | 30.9 | 54.7 | 26.4 | 16.5 | – | – | – | – | – | – | – | – | – | –
COc1cccc(C2CCCN2Cc2ccc(Oc3ccc4c(=O)[nH]oc4c3F)cc2)c1 (stereo not given) | 6.2 | 0 | 9.7 | 29 | 28.4 | 0 | – | – | – | – | – | – | – | – | – | –

Continued, in another order:

inhibition [1] [%] | inhibition [2] [%] | inhibition [3] [%] | inhibition [4] [%] | inhibition [5] [%] | inhibition [6] [%] | IC50 [7] [nM] | Ki [10] [nM] | IC50 [11] [nM] | IC50 [12] [nM] | Ki [14] [nM] | Ki [16] [nM] | SMILES | Ratio Ki [8] | Ratio IC50 [9] | Ratio IC50 [13] | Ratio Ki [15]
40.4 | 3.9 | 52.3 | 86 | 24.4 | 12.8 | > 5000 | 2310 | 178 | 202 | > 10000 | 180 | COc1ccc(C2CCCN2Cc2ccc(Oc3ccc(C(=O)NO)cc3)cc2)cc1 (stereo not given) | > 55.5 | > 28 | 1.1 | 12.8
0 | 8.5 | 0 | 16.2 | 37.9 | 0 | – | – | – | – | – | – | O=c1[nH]oc2c(Cl)c(Oc3ccc(CN4CCCC4c4cccc(F)c4)cc3)ccc12 (stereo not given) | – | – | – | –
73.2 | 16.8 | 45.8 | 80.6 | 28.4 | 25.8 | – | 2800 | – | – | > 10000 | 498 | O=C(NO)c1ccc(Oc2ccc(CN3CCCC3c3cccc(F)c3)cc2)c(F)c1 (stereo not given) | > 20 | – | – | 4.6
0 | 0 | 0 | 11.6 | 22.3 | 0 | – | – | – | – | – | – | Cc1cc(C)cc(C2CCCN2Cc2ccc(Oc3ccc4c(=O)[nH]oc4c3Cl)cc2)c1 (stereo not given) | – | – | – | –
36 | 0 | 39.5 | 84.7 | 6.5 | 10.7 | – | – | – | – | – | – | Cc1cc(C)cc(C2CCCN2Cc2ccc(Oc3ccc(C(=O)NO)cc3)cc2)c1 (stereo not given) | – | – | – | –
59.2 | 11.6 | 38.4 | 73.2 | 49.1 | 14.3 | – | – | – | – | – | – | COc1cc(CN2CCCC2c2cc(C)cc(C)c2)ccc1Oc1ccc2c(=O)[nH]oc2c1 (stereo not given) | – | – | – | –
87.2 | 49.5 | – | – | – | 52.7 | 109 | 93.7 | 7.7 | 29.4 | 105 | 14 | Cc1cc(C)cc(C2CCCN2Cc2ccc(Oc3ccc(C(N)=O)cc3F)cc2)c1 (racemic) | 7.5 | 14.1 | 3.8 | 6.7
35.8 | 0 | 0 | 39.2 | 9.6 | 22.5 | – | – | – | – | – | – | O=c1[nH]oc2c(F)c(Oc3ccc(CN4CCCC4c4ccc(Cl)cc4)cc3)ccc12 (stereo not given) | – | – | – | –
21.1 | 0 | 0 | 36.4 | 33.3 | 0 | – | – | – | – | – | – | Cc1cc(C)cc(C2CCCN2Cc2ccc(Oc3ccc4c(=O)[nH]oc4c3F)cc2)c1 (stereo not given) | – | – | – | –
0 | 19.7 | 0 | 0 | 60.6 | 0 | – | – | – | – | – | – | COc1cccc(C2CCCN2Cc2ccc(Oc3ccc4c(=O)[nH]oc4c3Cl)cc2)c1 (stereo not given) | – | – | – | –
45.9 | 0 | 51.6 | 85.3 | 13.8 | 21.9 | – | – | – | – | – | – | O=C(NO)c1ccc(Oc2ccc(CN3CCCC3c3ccccc3)cc2)cc1 (stereo not given) | – | – | – | –
